Measurements: patent publication US20240270762A1, “PENICILLIN-BINDING PROTEIN INHIBITORS” (priority 2021, published 2024)
Values after ≈ are worked out from the molar mass of the structure shown.

Tests used:
N. gonorrhoeae WHO L = experiment: Liquid broth MIC in Fastidious broth; conditions: Neisseria gonorrhoeae, read-out: Minimum Inhibitory Concentration, WHO L
N. gonorrhoeae WHO Q = experiment: Liquid broth MIC in Fastidious broth; conditions: Neisseria gonorrhoeae, read-out: Minimum Inhibitory Concentration, WHO Q
[1] = tested on: B. thailandensis ATCC 700388; experiment: microbe, parasite or virus in culture; assay type: cell-based; conditions: Burkholderia thailandensis, ATCC700388, read-out: Minimum inhibitory concentration (MIC), B. thailandensis ATCC 700388
A. baumannii 1258916 = experiment: microbe, parasite or virus in culture; assay type: cell-based, Acinetobacter baumannii; conditions: Acinetobacter baumannii, 1258916, read-out: MIC, A. baumannii 1258916
P. aeruginosa CDC-0095 = experiment: microbe, parasite or virus in culture; assay type: cell-based; conditions: Pseudomonas aeruginosa, CDC0095, read-out: Minimum inhibitory concentration, P. aeruginosa CDC-0095
A. baumannii CDC-0045 = experiment: microbe, parasite or virus in culture; assay type: cell-based; conditions: Acinetobacter baumannii, CDC0045, read-out: MIC, A. baumannii CDC-0045
P. aeruginosa ATCC 35151 = experiment: microbe, parasite or virus in culture; assay type: cell-based; conditions: Pseudomonas aeruginosa, ATCC35151, read-out: Minimum inhibitory concentration, P. aeruginosa ATCC 35151
[2] = biological target: T1, PBP3 from Acinetobacter baumannii (ATCC 19606) (Acinetobacter baumannii, UniProt A0ABX6CK25); experiment: Bocillin-FL fluorescence polarization competition binding, A. baumannii PBP3; conditions: fluorescence polarization competition binding assay using Bocillin-FL; read-out: A. baumannii PBP3 Potency
T1 sequence (A0ABX6CK25 64-610): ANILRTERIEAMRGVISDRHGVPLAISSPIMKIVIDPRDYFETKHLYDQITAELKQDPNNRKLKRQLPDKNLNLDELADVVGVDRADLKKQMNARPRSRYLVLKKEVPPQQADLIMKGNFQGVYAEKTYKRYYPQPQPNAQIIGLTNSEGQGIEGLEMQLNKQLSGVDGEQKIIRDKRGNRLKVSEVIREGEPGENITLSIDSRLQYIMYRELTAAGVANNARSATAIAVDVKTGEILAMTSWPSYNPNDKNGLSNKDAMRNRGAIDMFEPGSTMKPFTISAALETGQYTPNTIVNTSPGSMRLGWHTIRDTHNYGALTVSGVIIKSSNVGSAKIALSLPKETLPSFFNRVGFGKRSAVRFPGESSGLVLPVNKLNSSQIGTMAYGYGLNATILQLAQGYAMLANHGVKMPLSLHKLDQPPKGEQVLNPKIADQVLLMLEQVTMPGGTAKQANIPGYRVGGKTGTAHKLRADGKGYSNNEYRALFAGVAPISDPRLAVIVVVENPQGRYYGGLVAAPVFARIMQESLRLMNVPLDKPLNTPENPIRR
Method in brief: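 Purified PBP was preincubated with inhibitor (E. coli PBP3 1.5 μM, 30 min; P. aeruginosa PBP3 0.75 μM, A. baumannii PBP3 0.2 μM and PBP1a 1 μM, 15 min), then Bocillin-FL (0.1 μM; 0.05 μM for PBP1a) added and FP read up to 60 min. EC50 = 50% loss of bound probe.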

N. gonorrhoeae CDC-0197 = experiment: Liquid broth MIC in Fastidious broth; conditions: Neisseria gonorrhoeae, CDC0197, read-out: Minimum Inhibitory Concentration, CDC-0197
Description: ATCC 49226, FA1090, MS11, WHO G, WHO L, and WHO M produce wild type or wild-type like PBP2. WHO K, WHO X, WHO Z, WHO Q, and CDC-0197 produce mosaic PBP2. Liquid broth-based assays were used for antibacterial testing of PBP inhibitors in Neisseria gonorrhoeae. Briefly, cryo-preserved bacterial cultures of clinical strains were streaked for isolation on Chocolate Agar (72 g/L (2×) GC Agar Base (BD #228950) and 2% (2×) Hemoglobin was autoclaved at 121° C. for 20 minutes to sterilize. Once cooled to ˜50° C. the 2×GC Agar Base and 2× Hemoglobin solutions are combined and 1% IsoVitaleX Enrichment (BD #211876) was added to the solution). Strains were incubated at 36° C. and 5% CO2 to allow growth of colonies, 24 hours before inoculum preparation. 2-fold serial dilutions of test compounds were conducted in a 96 well plate with a final volume of 75 μL per well at 2-fold the final desired concentration in Fastidious broth (Remel #R07664). For preparation of assay inoculum, a direct suspension was prepared by aseptically swabbing 10-15 colonies from agar plates into culture tubes containing 2 mL of fresh sterile saline. After the dilution plates were set up, direct suspensions were then diluted in a cuvette containing sterile saline and the optical density was measured at 600 nm. Inocula were diluted such that 75 μL of this culture in Fastidious broth results in a starting bacterial concentration of 5×10^5 CFU/mL when added to the dilution plates. The plates were incubated for ˜24 hours at 36° C. and 5% CO2.

N. gonorrhoeae MS11 = experiment: Liquid broth MIC in Fastidious broth; conditions: Neisseria gonorrhoeae, MS11, read-out: Minimum Inhibitory Concentration, MS11
Description: Additional antibacterial testing of the series was performed in 8 reference strains of N. gonorrhoeae (ATCC 49226, FA1090, MS 11, WHO G, WHO L, WHO M, WHO K, WHO X, WHO Z, WHO Q, CDC-0197). ATCC 49226, FA1090, MS11, WHO G, WHO L, and WHO M produce wild type or wild-type like PBP2. WHO K, WHO X, WHO Z, WHO Q, and CDC-0197 produce mosaic PBP2. Liquid broth-based assays were used for antibacterial testing of PBP inhibitors in Neisseria gonorrhoeae. Briefly, cryo-preserved bacterial cultures of clinical strains were streaked for isolation on Chocolate Agar (72 g/L (2×) GC Agar Base (BD #228950) and 2% (2×) Hemoglobin was autoclaved at 121° C. for 20 minutes to sterilize. Once cooled to ˜50° C. the 2×GC Agar Base and 2× Hemoglobin solutions are combined and 1% IsoVitaleX Enrichment (BD #211876) was added to the solution). Strains were incubated at 36° C. and 5% CO2 to allow growth of colonies, 24 hours before inoculum preparation. 2-fold serial dilutions of test compounds were conducted in a 96 well plate with a final volume of 75 μL per well at 2-fold the final desired concentration in Fastidious broth (Remel #R07664). For preparation of assay inoculum, a direct suspension was prepared by aseptically swabbing 10-15 colonies from agar plates into culture tubes containing 2 mL of fresh sterile saline. After the dilution plates were set up, direct suspensions were then diluted in a cuvette containing sterile saline and the optical density was measured at 600 nm. Inocula were diluted such that 75 μL of this culture in Fastidious broth results in a starting bacterial concentration of 5×10^5 CFU/mL when added to the dilution plates. The plates were incubated for ˜24 hours at 36° C. and 5% CO2.

Row | SMILES | MIC (N. gonorrhoeae WHO L) | MIC (N. gonorrhoeae WHO Q) | MIC [1] | MIC (A. baumannii 1258916) | MIC (P. aeruginosa CDC-0095) | MIC (A. baumannii CDC-0045) | MIC (P. aeruginosa ATCC 35151) | IC50 [2] | MIC (N. gonorrhoeae CDC-0197) | MIC (N. gonorrhoeae MS11)
1 | O=C(NCCS(=O)(=O)N1CCN(C(=O)N[C@@H](C(=O)N[C@H]2Cc3ccc(F)c(C(=O)O)c3OB2O)c2cc(F)c(O)c(O)c2Cl)C1=O)c1nccs1 [Example 264, (R)-3-((R)-2-(2-chloro-5-fluoro-3,4-dihydroxyphenyl)-2-(2-oxo-3-((2-(thiazole-2-carboxamido)ethyl)sulfonyl)imidazolidine-1-carboxamido)acetamido)-7-fluoro-2-hydroxy-3,4-dihydro-2H-benzo[e][1,2]oxaborinine-8-carboxylic acid] | > 64 µg/mL | 16 to 32 µg/mL (≈ 20.7 to 41.4 µM) | < 1 µg/mL | < 1 µg/mL | 2 to 4 µg/mL (≈ 2.59 to 5.18 µM) | < 1 µg/mL | < 1 µg/mL | < 10 µM | 16 to 32 µg/mL (≈ 20.7 to 41.4 µM) | 16 to 32 µg/mL (≈ 20.7 to 41.4 µM)
2 | O=C(O)c1c(F)ccc2c1OB(O)[C@@H](NC(=O)C(NC(=O)N1CCN(S(=O)(=O)CCNC(=O)[C@@H]3CCCN3)C1=O)c1cc(F)c(O)c(O)c1Cl)C2 (stereo partly drawn) [Example 265, (3R)-3-(2-(2-chloro-5-fluoro-3,4-dihydroxyphenyl)-2-(2-oxo-3-((2-((S)-pyrrolidine-2-carboxamido)ethyl)sulfonyl)imidazolidine-1-carboxamido)acetamido)-7-fluoro-2-hydroxy-3,4-dihydro-2H-benzo[e][1,2]oxaborinine-8-carboxylic acid] | > 64 µg/mL | 16 to 32 µg/mL (≈ 21.1 to 42.2 µM) | < 1 µg/mL | 2 to 4 µg/mL (≈ 2.64 to 5.27 µM) | 2 to 4 µg/mL (≈ 2.64 to 5.27 µM) | < 1 µg/mL | < 1 µg/mL | < 10 µM | 16 to 32 µg/mL (≈ 21.1 to 42.2 µM) | 16 to 32 µg/mL (≈ 21.1 to 42.2 µM)
3 | O=C(NCCS(=O)(=O)N1CCN(C(=O)NC(C(=O)N[C@H]2Cc3ccc(F)c(C(=O)O)c3OB2O)c2cc(F)c(O)c(O)c2Cl)C1=O)Nc1cccc(O)c1 (stereo partly drawn) [Example 266, (3R)-3-(2-(2-chloro-5-fluoro-3,4-dihydroxyphenyl)-2-(3-((2-(3-(3-hydroxyphenyl)ureido)ethyl)sulfonyl)-2-oxoimidazolidine-1-carboxamido)acetamido)-7-fluoro-2-hydroxy-3,4-dihydro-2H-benzo[e][1,2]oxaborinine-8-carboxylic acid] | > 64 µg/mL | 16 to 32 µg/mL (≈ 20.1 to 40.2 µM) | 2 to 4 µg/mL (≈ 2.51 to 5.02 µM) | < 1 µg/mL | 8 to 16 µg/mL (≈ 10 to 20.1 µM) | < 1 µg/mL | < 1 µg/mL | < 10 µM | 16 to 32 µg/mL (≈ 20.1 to 40.2 µM) | 16 to 32 µg/mL (≈ 20.1 to 40.2 µM)
4 | O=C(NCCS(=O)(=O)N1CCN(C(=O)N[C@@H](C(=O)N[C@H]2Cc3ccc(F)c(C(=O)O)c3OB2O)c2cc(F)c(O)c(O)c2Cl)C1=O)Nc1cccnc1 [Example 267, (R)-3-((R)-2-(2-chloro-5-fluoro-3,4-dihydroxyphenyl)-2-(2-oxo-3-((2-(3-(pyridin-3-yl)ureido)ethyl)sulfonyl)imidazolidine-1-carboxamido)acetamido)-7-fluoro-2-hydroxy-3,4-dihydro-2H-benzo[e][1,2]oxaborinine-8-carboxylic acid] | > 64 µg/mL | 16 to 32 µg/mL (≈ 20.5 to 40.9 µM) | 2 to 4 µg/mL (≈ 2.56 to 5.12 µM) | < 1 µg/mL | 2 to 4 µg/mL (≈ 2.56 to 5.12 µM) | < 1 µg/mL | < 1 µg/mL | < 10 µM | 16 to 32 µg/mL (≈ 20.5 to 40.9 µM) | 16 to 32 µg/mL (≈ 20.5 to 40.9 µM)
5 | O=C(NCCCS(=O)(=O)N1CCN(C(=O)NC(C(=O)N[C@H]2Cc3ccc(F)c(C(=O)O)c3OB2O)c2cc(F)c(O)c(O)c2Cl)C1=O)c1ccccc1 (stereo partly drawn) [Example 268, (3R)-3-(2-(3-((3-benzamidopropyl)sulfonyl)-2-oxoimidazolidine-1-carboxamido)-2-(2-chloro-5-fluoro-3,4-dihydroxyphenyl)acetamido)-7-fluoro-2-hydroxy-3,4-dihydro-2H-benzo[e][1,2]oxaborinine-8-carboxylic acid] | > 64 µg/mL | 16 to 32 µg/mL (≈ 20.5 to 41 µM) | > 128 µg/mL | < 1 µg/mL | 32 to 64 µg/mL (≈ 41 to 82.1 µM) | 2 to 4 µg/mL (≈ 2.56 to 5.13 µM) | < 1 µg/mL | < 10 µM | 16 to 32 µg/mL (≈ 20.5 to 41 µM) | 16 to 32 µg/mL (≈ 20.5 to 41 µM)
6 | O=C(NCCCS(=O)(=O)N1CCN(C(=O)NC(C(=O)N[C@H]2Cc3ccc(F)c(C(=O)O)c3OB2O)c2cc(F)c(O)c(O)c2Cl)C1=O)c1ccc(O)cc1 (stereo partly drawn) [Example 269, (3R)-3-(2-(2-chloro-5-fluoro-3,4-dihydroxyphenyl)-2-(3-((3-(4-hydroxybenzamido)propyl)sulfonyl)-2-oxoimidazolidine-1-carboxamido)acetamido)-7-fluoro-2-hydroxy-3,4-dihydro-2H-benzo[e][1,2]oxaborinine-8-carboxylic acid] | > 64 µg/mL | 16 to 32 µg/mL (≈ 20.1 to 40.2 µM) | > 128 µg/mL | 2 to 4 µg/mL (≈ 2.51 to 5.03 µM) | 8 to 16 µg/mL (≈ 10.1 to 20.1 µM) | < 1 µg/mL | < 1 µg/mL | < 10 µM | 16 to 32 µg/mL (≈ 20.1 to 40.2 µM) | 16 to 32 µg/mL (≈ 20.1 to 40.2 µM)
7 | O=C(NCCCS(=O)(=O)N1CCN(C(=O)N[C@H](C(=O)N[C@H]2Cc3ccc(F)c(C(=O)O)c3OB2O)c2cc(F)c(O)c(O)c2Cl)C1=O)c1cccc(O)c1 [Example 270, (R)-3-((S)-2-(2-chloro-5-fluoro-3,4-dihydroxyphenyl)-2-(3-((3-(3-hydroxybenzamido)propyl)sulfonyl)-2-oxoimidazolidine-1-carboxamido)acetamido)-7-fluoro-2-hydroxy-3,4-dihydro-2H-benzo[e][1,2]oxaborinine-8-carboxylic acid] | > 64 µg/mL | > 64 µg/mL | > 128 µg/mL | 8 to 16 µg/mL (≈ 10.1 to 20.1 µM) | > 128 µg/mL | 8 to 16 µg/mL (≈ 10.1 to 20.1 µM) | < 1 µg/mL | < 10 µM | > 64 µg/mL | > 64 µg/mL
8 | O=C(NCCCS(=O)(=O)N1CCN(C(=O)N[C@@H](C(=O)N[C@H]2Cc3ccc(F)c(C(=O)O)c3OB2O)c2cc(F)c(O)c(O)c2Cl)C1=O)c1cccc(O)c1 [Example 271, (R)-3-((R)-2-(2-chloro-5-fluoro-3,4-dihydroxyphenyl)-2-(3-((3-(3-hydroxybenzamido)propyl)sulfonyl)-2-oxoimidazolidine-1-carboxamido)acetamido)-7-fluoro-2-hydroxy-3,4-dihydro-2H-benzo[e][1,2]oxaborinine-8-carboxylic acid] | > 64 µg/mL | 16 to 32 µg/mL (≈ 20.1 to 40.2 µM) | 8 to 16 µg/mL (≈ 10.1 to 20.1 µM) | < 1 µg/mL | > 128 µg/mL | < 1 µg/mL | < 1 µg/mL | < 10 µM | 16 to 32 µg/mL (≈ 20.1 to 40.2 µM) | 16 to 32 µg/mL (≈ 20.1 to 40.2 µM)
9 | O=C(NCCCS(=O)(=O)N1CCN(C(=O)NC(C(=O)N[C@H]2Cc3ccc(F)c(C(=O)O)c3OB2O)c2cc(F)c(O)c(O)c2Cl)C1=O)c1ccncc1 (stereo partly drawn) [Example 272, (3R)-3-(2-(2-chloro-5-fluoro-3,4-dihydroxyphenyl)-2-(3-((3-(isonicotinamido)propyl)sulfonyl)-2-oxoimidazolidine-1-carboxamido)acetamido)-7-fluoro-2-hydroxy-3,4-dihydro-2H-benzo[e][1,2]oxaborinine-8-carboxylic acid] | > 64 µg/mL | 16 to 32 µg/mL (≈ 20.5 to 41 µM) | 2 to 4 µg/mL (≈ 2.56 to 5.12 µM) | 2 to 4 µg/mL (≈ 2.56 to 5.12 µM) | > 128 µg/mL | < 1 µg/mL | < 1 µg/mL | < 10 µM | 16 to 32 µg/mL (≈ 20.5 to 41 µM) | 16 to 32 µg/mL (≈ 20.5 to 41 µM)
